Reference: patent US20100016360A1 (WYETH, priority 2008, published 2010)

Key:
Type in all cases: in vitro ADME
CYP2D6 = CYP2D6 (Homo sapiens, UniProt P10635); experiment: CYP2D6 inhibition
CYP2C9 = CYP2C9 (Homo sapiens, UniProt P11712); experiment: CYP2C9 inhibition
CYP3A4 = CYP3A4 (Homo sapiens, UniProt P08684); experiment: CYP3A4 inhibition
Sequence of CYP3A4 (P08684 whole entry, species assumed): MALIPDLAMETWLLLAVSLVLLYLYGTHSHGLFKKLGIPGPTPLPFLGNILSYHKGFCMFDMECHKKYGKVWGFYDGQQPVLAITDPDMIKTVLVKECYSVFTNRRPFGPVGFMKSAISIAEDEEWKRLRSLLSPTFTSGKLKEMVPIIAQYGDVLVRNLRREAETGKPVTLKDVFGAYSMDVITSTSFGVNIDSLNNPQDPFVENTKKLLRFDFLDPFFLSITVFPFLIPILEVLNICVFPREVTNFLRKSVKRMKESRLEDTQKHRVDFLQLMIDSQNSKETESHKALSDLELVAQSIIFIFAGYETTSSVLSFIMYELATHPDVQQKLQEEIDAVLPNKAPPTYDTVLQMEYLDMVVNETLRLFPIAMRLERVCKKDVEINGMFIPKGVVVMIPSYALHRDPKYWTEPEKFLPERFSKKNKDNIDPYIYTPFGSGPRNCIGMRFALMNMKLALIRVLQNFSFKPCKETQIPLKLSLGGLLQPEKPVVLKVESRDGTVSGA

Sequence of CYP2C9 (P11712 whole entry, species assumed): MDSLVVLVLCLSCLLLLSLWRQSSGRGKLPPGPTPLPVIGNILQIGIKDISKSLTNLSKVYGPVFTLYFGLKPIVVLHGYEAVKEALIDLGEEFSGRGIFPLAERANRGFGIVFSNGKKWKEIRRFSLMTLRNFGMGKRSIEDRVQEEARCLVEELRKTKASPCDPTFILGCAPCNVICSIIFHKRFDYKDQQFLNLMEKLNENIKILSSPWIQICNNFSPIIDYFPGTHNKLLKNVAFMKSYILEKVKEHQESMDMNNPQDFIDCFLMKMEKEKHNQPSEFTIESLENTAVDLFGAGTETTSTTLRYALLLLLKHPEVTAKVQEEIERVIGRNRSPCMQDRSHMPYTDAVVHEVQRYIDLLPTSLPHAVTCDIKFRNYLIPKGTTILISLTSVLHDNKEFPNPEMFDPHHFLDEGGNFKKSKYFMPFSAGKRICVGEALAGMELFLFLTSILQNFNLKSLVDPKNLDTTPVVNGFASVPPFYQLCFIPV
Sequence of CYP2D6 (P10635 whole entry, species assumed): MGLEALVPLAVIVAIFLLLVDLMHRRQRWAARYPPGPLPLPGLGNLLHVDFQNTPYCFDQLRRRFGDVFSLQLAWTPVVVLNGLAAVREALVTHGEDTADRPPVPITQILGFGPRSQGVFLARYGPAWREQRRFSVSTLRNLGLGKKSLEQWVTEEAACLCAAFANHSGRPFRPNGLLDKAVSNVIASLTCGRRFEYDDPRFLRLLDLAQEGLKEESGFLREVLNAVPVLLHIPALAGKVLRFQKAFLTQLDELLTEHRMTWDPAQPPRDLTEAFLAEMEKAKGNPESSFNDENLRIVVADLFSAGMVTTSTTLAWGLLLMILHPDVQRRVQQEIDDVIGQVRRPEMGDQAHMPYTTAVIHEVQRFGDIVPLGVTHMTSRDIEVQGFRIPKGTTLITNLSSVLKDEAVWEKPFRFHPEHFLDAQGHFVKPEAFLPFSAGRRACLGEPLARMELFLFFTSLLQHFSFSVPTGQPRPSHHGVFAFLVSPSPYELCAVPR

- CYP2D6 % inhibition (CYP2D6): 8%
- CYP2C9 % inhibition (CYP2C9): −36%
- CYP3A4 % inhibition (CYP3A4): −21%
Compound: COc1ncccc1-c1ccc(NC(=O)NCCCCN2CCCCC2)cc1
